Reference: US10980776B2, “Synergistic pharmaceutical combination for the treatment of squamous cell carcinoma of head and neck” (Piramal Enterprises Limited, priority 2011, dated 2021)

Legend:
FADU cells [1] = tested on: FADU cells
SCC-25 cells [2] = assay: Combination studies (single and sequential combination dosing), % cytotoxicity in SCC-25 cells; settings: SCC-25; single agent at IC70 (compound A 4.1 μM)
Protocol: (§1) Logarithmically growing cells were plated at a density of 3×10^3 cells/well and allowed to recover overnight. […] After 72 hours, cell toxicity was determined by CCK-8 (Cell Counting Kit-8) reagent (Dojindo Molecular Technologies, Japan); WST-8 (2-(2-methoxy-4-nitrophenyl)-3-(4-nitrophenyl)-5-(2, 4-disulfophenyl)]-2H-tetrazolium, monosodium salt) assay. In accordance with the manufacturer's instructions, 5 μl/well CCK-8 reagent was added and plates were incubated for 2 hours. The toxicity was determined by measuring the absorbance on Tecan Sapphire multi-fluorescence micro-plate reader (Tecan, Germany, GmbH) at a wavelength of 450 nm corrected to 650 nm and normalized to controls.
(§2) CCK-8 allows convenient assays using Dojindo's tetrazolium salt, WST [8[(2-(2-methoxy-4-nitrophenyl)-3-(4-nitrophenyl)-5-(2,4-disulfophenyl)-2H-tetrazolium, monosodium salt], which produces a water-soluble formazan dye upon bioreduction in the presence of an electron carrier, 1-Methoxy PMS. CCK-8 solution is added directly to the cells; no pre-mixing of components is required. CCK-8 is a sensitive nonradioactive colorimetric assay for determining the number of viable cells in cell proliferation and cytotoxicity assays. WST-8 is bio-reduced by cellular dehydrogenases to an orange formazan product that is soluble in tissue culture medium. The amount of formazan produced is directly proportional to the number of living cells. The detection sensitivity of cell proliferation assays using WST-8 is higher than assays using the other tetrazolium salts such as MIT, XTT, MTS or WST-1. Optical Density was determined at measurement wavelength of 450 nm and reference wave length of 630 nm.
Sorafenib in the following dose of final concentration 0.18 μM and compound A in the following doses of final concentration 0.1 μM, 0.4 μM and 4.1 μM were analyzed in single dose and in all possible combinations of the dose range for the two anticancer agents mentioned above. The sequence of treatment is as follows; the SCC-25 cells were treated with sorafenib for 0 to 24 hrs. At the end of 24 hrs the cells were washed two times with plain MEM (minimum essential media) medium. Fresh MEM with 10% serum (200 μL/well) was added, followed by treatment with compound A from 24 hrs to 96 hrs.
(§3) Sorafenib in the following dose of final concentration 0.18 μM and compound B in the following doses of final concentration 0.2 μM, 1.1 μM and 4.8 μM were analyzed in single dose and in all possible combinations of the dose range for the two anticancer agents mentioned above. The sequence of treatment is as follows; the SCC-25 cells were treated with sorafenib for 0 to 24 hrs. At the end of 24 hrs the cells were washed two times with plain MEM medium. Fresh MEM with 10% serum (200 μL/well) was added, followed by treatment with compound B from 24 hrs to 96 hrs.
Lapatinib in the following dose of final concentration 0.2 μM and compound A in the following doses of final concentration 0.2 μM, 0.5 μM and 3.3 μM were analyzed in single dose and in all possible combinations of the dose range for the two drugs mentioned above. The sequence of treatment is as follows; the SCC-25 cells were treated with lapatinib for 0 to 24 hrs. At the end of 24 hrs the cells were washed two times with plain MEM medium. Fresh MEM with 10% serum (200 μL/well) was added, followed by treatment with compound A from 24 hrs to 96 hrs.
(§4) Lapatinib in the following dose of final concentration 0.2 μM and compound B in the following doses of final concentration 0.2 μM, 1.1 μM and 4.8 μM were analyzed in single dose and in all possible combinations of the dose range for the two drugs mentioned above. The sequence of treatment is as follows; the SCC-25 cells were treated with lapatinib for 0 to 24 hrs. At the end of 24 hrs the cells were washed two times with plain MEM medium. Fresh MEM with 10% serum (200 μL/well) was added, followed by treatment with compound A from 24 hrs to 96 hrs.

[3] = tested on: FaDu (hypopharyngeal squamous cell carcinoma) xenografts; assay: In vivo efficacy in human head and neck cancer FaDu xenografts; settings: FaDu xenografts in SCID mice; end of treatment, after 18 days; Compound A 35 mpk i.p. once daily 5 days a week; cisplatin 1 mpk i.p. once a week; cetuximab 2.5 mpk twice a week; 3 weeks
Protocol: In-vivo studies were carried out according to the method described in Clinical cancer search, 2003, 9, 6052-6061; the disclosure of which is incorporated herein by reference for the teaching of the assay.
The in-vivo studies were carried out using Xenograft models in Severe combined immune deficiency (SCID) mice strain—CbySmn.CB17-Prkdcscid/J, by the method described below. The statistically significant number of mice per group (n=6) was chosen in order to be able to statistically evaluate the study data.
FaDu cells were grown in MEM (minimum essential media) medium containing non-essential amino acids and 10% fetal calf serum in 5% CO2 incubator at 37° C. Cells were pelleted by centrifugation at 1000 rpm for 10 minutes. Cells were resuspended in pre-chilled mixture of saline to get a count of 6×10^6 cells per mL; 0.2 ml of this cell suspension was kept on ice and injected by subcutaneous (s.c.) route in SCID mice. Mice were observed every alternate day for palpable tumor mass. Once the tumor size reached a size of 3-5 mm in diameter, animals were randomized into respective groups of treatment and untreated controls. The treatment groups comprised of 5 groups viz. […] The control group received no treatment.
Measurement of tumor was done every 2-3 days apart. Growth inhibition percentage (GI %) was calculated at the end of experiment.

FADU cells [4] = assay: CCK-8 cytotoxicity assay, determination of inhibitory concentrations in FADU cells; assay type: cell-based, human; settings: 72 hr
Protocol: as §1, §2
(§5) The cells were seeded at a density of 3000 cells/well, in a 200 μL in tissue culture grade 96 well plate and were allowed to recover for 24 hrs in a humidified 5%±0.2 CO2 incubator at 37° C.±0.5° C. […] The final DMSO concentration was 0.5% in wells. Plates were incubated for 48 hrs in humidified 5%±0.2 CO2 incubator at 37±0.5° C. After 48 hrs the plates were removed from CO2 incubator and 5 μL of Cell counting Kit (CCK-8) per well was added. The same plate was kept at 37° C. for 3 hrs, and allowed to come to room temperature. The absorbance at a wavelength of 450 nm was read on Tecan safire reader. The percent cytotoxicity was calculated using the following formula.

Detroit-562 cells [5] = assay: Combination studies (single and sequential combination dosing), % cytotoxicity in Detroit-562 cells; settings: Detroit-562
Protocol: as §1, §2
as §3, with “1.8” for “0.18”, “A” for “B”, “0.5” for “0.2”, “1.3” for “1.1”, “12.1” for “4.8”, “Detroit-562” for “the SCC-25”
as §3, with “1.8” for “0.18”, “2.7” for “0.2”, “14.1” for “1.1”, “25.2” for “4.8”, “Detroit-562” for “SCC-25”
Lapatinib in the following dose of final concentration 1 μM and compound A in the following doses of final concentration 0.5 μM, 1.3 μM and 12.1 μM were analyzed in single dose and in all possible combinations of the dose range for the two anticancer agents mentioned above. The sequence of treatment is as follows; the Detroit-562 cells were treated with lapatinib for 0 to 24 hrs. At the end of 24 hrs the cells were washed two times with plain MEM medium. Fresh MEM with 10% serum (200 μL/well) was added, followed by treatment with compound A from 24 hrs to 96 hrs.
as §4, with “final concentration 1.0 μM and” for “final concentration 0.2 μM and”, “final concentration 2.7 μM, 14.1” for “final concentration 0.2 μM, 1.1”, “2.7 μM, 14.1 μM and” for “0.2 μM, 1.1 μM and”, “μM and 25.2 μM were” for “μM and 4.8 μM were”, “follows; the Detroit-562 cells were” for “follows; the SCC-25 cells were”

Detroit-562 cells [6] = assay: CCK-8 cytotoxicity assay, determination of inhibitory concentrations in Detroit-562 cells; assay type: cell-based; settings: 72 hr
Protocol: as §1, §2, §5

SCC-25 cells [7] = assay: CCK-8 cytotoxicity assay, determination of inhibitory concentrations in SCC-25 cells; assay type: cell-based; settings: SCC-25 cells, 72 hr
Protocol: as §1, §2, §5

For `CN1CC[C@@H](c2c(O)cc(O)c3c(=O)cc(-c4ccccc4Cl)oc23)[C@@H]1CO.Cl` (relative stereo) [Compound A, (+)-trans-2-(2-Chloro-phenyl)-5,7-dihydroxy-8-(2-hydroxy-methyl-1-methyl-pyrrolidin-3-yl)-chromen-4-one hydrochloride], the cytotoxicity (FADU cells [1]) was 18%, the “% Cytotoxicity” value (SCC-25 cells [2]) was 29% and the “Tumor Growth inhibition (%)” value [3] was 11%. The IC10 (FADU cells [4]) was 80 nM, the IC30 (FADU cells [4]) was 200 nM and the IC50 (FADU cells [4]) was 1300 nM. For the same compound, the IC70 (FADU cells [4]) was 8300 nM, the IC90 (FADU cells [4]) was 28300 nM and the “% Cytotoxicity” value (Detroit-562 cells [5]; single agent at IC50 (compound A 1.3 μM), lapatinib study) was 22%. The “% Cytotoxicity” value (Detroit-562 cells [5]; single agent at IC70, cisplatin/5-FU/compound A study) was 18.02%, the “% Cytotoxicity” value (Detroit-562 cells [5]; single agent at IC70, erlotinib study) was 34.32% and the IC10 (Detroit-562 cells [6]) was 100 nM. For the same compound, the IC30 (Detroit-562 cells [6]) was 500 nM, the IC50 (Detroit-562 cells [6]) was 1300 nM and the IC70 (Detroit-562 cells [6]) was 12100 nM. The IC90 (Detroit-562 cells [6]) was 26300 nM, the IC30 (SCC-25 cells [7]) was 100 nM and the IC70 (SCC-25 cells [7]) was 4100 nM. The IC90 (SCC-25 cells [7]) was 33300 nM and the IC50 (SCC-25 cells [7]; read-out: IC50) was 400 nM.
